Results published in patent US20020114822A1, “Attractants for yellow jackets” (priority 2000, published 2002).

Tested on: yellow jackets indigenous to the west coast (V. pensylvanica)
Assay: Trials B: trap catch on the west coast, preferred formulation against heptyl butyrate formulations
Type: in vivo
Settings: average of two trials of each formulation
Text: In the Examples and reported test results that follow, traps were usually hung in trees approximately four to six feet above the ground. A number of traps were used in each area where tests were made and the traps were spaced anywhere from fifteen to fifty feet apart. The traps used were commercially available traps generally of the top opening lid variety. Holes were made in the lids which were large enough to allow a yellow jacket to crawl inside the trap but small enough to confuse the yellow jackets in finding their way out. A trap of this kind is commercially available from Woodstream, Inc. sold under its trade name Yellow Jacket Trap®. The “vinegar” used in the examples was a vinegar as defined by FDA being a 5% acetic acid solution derived from apples. The “preferred formulation” used in the below reported trials was comprised of 58% apple juice concentrate; 36% vinegar; 5% poultry liver; and 1% dish detergent. Test were conducted on the west coast to compare the effectiveness of the preferred formulation of the invention with commercial formulations containing heptyl butyrate. Two trials of each formulation were made and the numbers indicate the average number of yellow jackets caught in the trials. […]

Structure (SMILES): CCCCCCCOC(=O)CCC [Heptyl Butyrate]
- average number of yellow jackets caught: 64
